Experiments:
Format in all cases: functional
MDA-MB-435 = assay: Cytotoxicity against human MDA-MB-435 cells assessed as cell growth at 0.01 uM after 48 hrs by sulforhodamine B assay relative to control; conditions: MDA-MB-435, 48 h, read-out: Activity
NCI-H522 = assay: Cytotoxicity against human NCI-H522 cells assessed as cell growth at 0.01 uM after 48 hrs by sulforhodamine B assay relative to control; conditions: NCI-H522, 48 h, read-out: Activity
SF-268 [1] = assay: Cytotoxicity against human SF268 cells assessed as cell growth at 10 uM after 48 hrs by sulforhodamine B assay relative to control; conditions: SF-268, 48 h, read-out: Activity
UO-31 [2] = assay: Cytotoxicity against human UO31 cells assessed as cell growth at 0.1 uM after 48 hrs by sulforhodamine B assay relative to control; conditions: UO-31, 48 h, read-out: Activity
HCT-15 = assay: Cytotoxicity against human HCT15 cells assessed as cell growth at 1 uM after 48 hrs by sulforhodamine B assay relative to control; conditions: HCT-15, 48 h, read-out: Activity
OVCAR-4 [3] = assay: Cytotoxicity against human OVCAR4 cells assessed as cell growth at 0.01 uM after 48 hrs by sulforhodamine B assay relative to control; conditions: OVCAR-4, 48 h, read-out: Activity
K562 [4] = assay: Cytotoxicity against human K562 cells assessed as cell growth at 0.1 uM after 48 hrs by sulforhodamine B assay relative to control; conditions: K562, 48 h, read-out: Activity
MCF7 = assay: Cytotoxicity against human MCF7 cells assessed as cell growth at 1 uM after 48 hrs by sulforhodamine B assay relative to control; conditions: MCF7, 48 h, read-out: Activity
HT-29 = assay: Cytotoxicity against human HT-29 cells assessed as cell growth at 0.1 uM after 48 hrs by sulforhodamine B assay relative to control; conditions: HT-29, 48 h, read-out: Activity
OVCAR-4 [5] = assay: Cytotoxicity against human OVCAR4 cells assessed as cell growth at 100 uM after 48 hrs by sulforhodamine B assay relative to control; conditions: OVCAR-4, 48 h, read-out: Activity
TK-10 = assay: Cytotoxicity against human TK10 cells assessed as cell growth at 1 uM after 48 hrs by sulforhodamine B assay relative to control; conditions: TK-10, 48 h, read-out: Activity
UACC-62 = assay: Cytotoxicity against human UACC62 cells assessed as cell growth at 0.1 uM after 48 hrs by sulforhodamine B assay relative to control; conditions: UACC-62, 48 h, read-out: Activity
UACC-257 = assay: Cytotoxicity against human UACC257 cells assessed as cell growth at 100 uM after 48 hrs by sulforhodamine B assay relative to control; conditions: UACC-257, 48 h, read-out: Activity
UO-31 [6] = assay: Cytotoxicity against human UO31 cells assessed as cell growth at 100 uM after 48 hrs by sulforhodamine B assay relative to control; conditions: UO-31, 48 h, read-out: Activity
OVCAR-5 [7] = assay: Cytotoxicity against human OVCAR5 cells assessed as cell growth at 10 uM after 48 hrs by sulforhodamine B assay relative to control; conditions: OVCAR-5, 48 h, read-out: Activity
PC-3 [8] = assay: Cytotoxicity against human PC3 cells assessed as cell growth at 100 uM after 48 hrs by sulforhodamine B assay relative to control; conditions: PC-3, 48 h, read-out: Activity
786-0 = assay: Cytotoxicity against human 786-0 cells assessed as cell growth at 10 uM after 48 hrs by sulforhodamine B assay relative to control; conditions: 786-0, 48 h, read-out: Activity
HL-60(TB) [9] = assay: Cytotoxicity against human HL-60(TB) cells assessed as cell growth at 0.01 uM after 48 hrs by sulforhodamine B assay relative to control; conditions: HL-60, 48 h, read-out: Activity
KM12 = assay: Cytotoxicity against human KM12 cells assessed as cell growth at 0.1 uM after 48 hrs by sulforhodamine B assay relative to control; conditions: KM12, 48 h, read-out: Activity
BT-549 = assay: Cytotoxicity against human BT549 cells assessed as cell growth at 1 uM after 48 hrs by sulforhodamine B assay relative to control; conditions: BT-549, 48 h, read-out: Activity
DU-145 = assay: Cytotoxicity against human DU145 cells assessed as cell growth at 100 uM after 48 hrs by sulforhodamine B assay relative to control; conditions: DU-145, 48 h, read-out: Activity
PC-3 [10] = assay: Cytotoxicity against human PC3 cells assessed as cell growth at 0.1 uM after 48 hrs by sulforhodamine B assay relative to control; conditions: PC-3, 48 h, read-out: Activity
A549 = assay: Cytotoxicity against human A549/ATCC cells assessed as cell growth at 0.1 uM after 48 hrs by sulforhodamine B assay relative to control; conditions: A549, 48 h, read-out: Activity
OVCAR-5 [11] = assay: Cytotoxicity against human OVCAR5 cells assessed as cell growth at 0.01 uM after 48 hrs by sulforhodamine B assay relative to control; conditions: OVCAR-5, 48 h, read-out: Activity
UO-31 [12] = assay: Cytotoxicity against human UO31 cells assessed as cell growth at 10 uM after 48 hrs by sulforhodamine B assay relative to control; conditions: UO-31, 48 h, read-out: Activity
HOP-62 = assay: Cytotoxicity against human HOP62 cells assessed as cell growth at 1 uM after 48 hrs by sulforhodamine B assay relative to control; conditions: HOP-62, 48 h, read-out: Activity
HL-60(TB) [13] = assay: Cytotoxicity against human HL-60(TB) cells assessed as cell growth at 0.1 uM after 48 hrs by sulforhodamine B assay relative to control; conditions: HL-60, 48 h, read-out: Activity
IGROV-1 [14] = assay: Cytotoxicity against human IGROV1 cells assessed as cell growth at 0.1 uM after 48 hrs by sulforhodamine B assay relative to control; conditions: IGROV-1, 48 h, read-out: Activity
IGROV-1 [15] = assay: Cytotoxicity against human IGROV1 cells assessed as cell growth at 100 uM after 48 hrs by sulforhodamine B assay relative to control; conditions: IGROV-1, 48 h, read-out: Activity
K562 [16] = assay: Cytotoxicity against human K562 cells assessed as cell growth at 0.01 uM after 48 hrs by sulforhodamine B assay relative to control; conditions: K562, 48 h, read-out: Activity
IGROV-1 [17] = assay: Cytotoxicity against human IGROV1 cells assessed as cell growth at 1 uM after 48 hrs by sulforhodamine B assay relative to control; conditions: IGROV-1, 48 h, read-out: Activity
NCI-H226 = assay: Cytotoxicity against human NCI-H226 cells assessed as cell growth at 1 uM after 48 hrs by sulforhodamine B assay relative to control; conditions: NCI-H226, 48 h, read-out: Activity
SF-268 [18] = assay: Cytotoxicity against human SF268 cells assessed as cell growth at 1 uM after 48 hrs by sulforhodamine B assay relative to control; conditions: SF-268, 48 h, read-out: Activity
SK-MEL-28 = assay: Cytotoxicity against human SK-MEL-28 cells assessed as growth inhibition after 48 hrs by sulforhodamine B assay; conditions: SK-MEL-28, 48 h
HCT-116 = assay: Cytotoxicity against human HCT116 cells assessed as cell growth at 0.01 uM after 48 hrs by sulforhodamine B assay relative to control; conditions: HCT-116, 48 h, read-out: Activity
SK-OV-3 = assay: Cytotoxicity against human SKOV3 cells assessed as cell growth at 100 uM after 48 hrs by sulforhodamine B assay relative to control; conditions: SK-OV-3, 48 h, read-out: Activity

| Compound | growth at 0.01 µM (MDA-MB-435) | growth at 0.01 µM (NCI-H522) | growth at 10 µM (SF-268 [1]) | growth at 0.1 µM (UO-31 [2]) | growth at 1 µM (HCT-15) | growth at 0.01 µM (OVCAR-4 [3]) | growth at 0.1 µM (K562 [4]) | growth at 1 µM (MCF7) | growth at 0.1 µM (HT-29) | growth at 100 µM (OVCAR-4 [5]) | growth at 1 µM (TK-10) | growth at 0.1 µM (UACC-62) | growth at 100 µM (UACC-257) | growth at 100 µM (UO-31 [6]) | growth at 10 µM (OVCAR-5 [7]) | growth at 100 µM (PC-3 [8]) | growth at 10 µM (786-0) | growth at 0.01 µM (HL-60(TB) [9]) | growth at 0.1 µM (KM12) | growth at 1 µM (BT-549) | further results |
| --- | --- | --- | --- | --- | --- | --- | --- | --- | --- | --- | --- | --- | --- | --- | --- | --- | --- | --- | --- | --- | --- |
| COc1ccc(-c2cc(/C=C/C(=O)c3ccc(N)cc3)[nH]n2)cc1OC | 91% | 92% | -49% | 99% | 73% | 85% | 98% | 81% | 107% | -98% | 107% | 94% | -96% | -85% | -10% | -48% | -48% | 104% | 104% | 80% | growth at 100 µM (DU-145): -100%; growth at 0.1 µM (PC-3 [10]): 95%; growth at 0.1 µM (A549): 93%; growth at 0.01 µM (OVCAR-5 [11]): 91%; growth at 10 µM (UO-31 [12]): 11%; growth at 1 µM (HOP-62): 92%; growth at 0.1 µM (HL-60(TB) [13]): 104%; growth at 0.1 µM (IGROV-1 [14]): 106%; growth at 100 µM (IGROV-1 [15]): -62%; growth at 0.01 µM (K562 [16]): 99%; growth at 1 µM (IGROV-1 [17]): 100%; growth at 1 µM (NCI-H226): 86%; growth at 1 µM (SF-268 [18]): 88%; GI50 (SK-MEL-28): 2.14 µM; LC50 (SK-MEL-28): 21.1 µM; TGI (SK-MEL-28): 5.66 µM; growth at 0.01 µM (HCT-116): 96%; growth at 100 µM (SK-OV-3): -99% |
| COc1cc(-c2cc(/C=C/C(=O)c3ccc4c(c3)OCO4)[nH]n2)cc(OC)c1OC | 96% | 87% | 5% | 83% | 81% | 91% | 102% | 65% | 100% | 3% | 97% | 96% | -1% | -79% | 16% | -38% | -30% | 98% | 95% | 92% | growth at 100 µM (DU-145): -15%; growth at 0.1 µM (PC-3 [10]): 99%; growth at 0.1 µM (A549): 98%; growth at 0.01 µM (OVCAR-5 [11]): 97%; growth at 10 µM (UO-31 [12]): -29%; growth at 1 µM (HOP-62): 95%; growth at 0.1 µM (HL-60(TB) [13]): 95%; growth at 0.1 µM (IGROV-1 [14]): 97%; growth at 100 µM (IGROV-1 [15]): -8%; growth at 0.01 µM (K562 [16]): 100%; growth at 1 µM (IGROV-1 [17]): 99%; growth at 1 µM (NCI-H226): 89%; growth at 1 µM (SF-268 [18]): 90%; LC50 (SK-MEL-28): > 100 µM; TGI (SK-MEL-28): 7.34 µM; growth at 0.01 µM (HCT-116): 104%; growth at 100 µM (SK-OV-3): -47% |
| COc1cc2c(cc1OC)C(=O)/C(=C/c1cc(-c3ccc4c(c3)OCO4)n[nH]1)C2 | 102% | 91% | -75% | 85% | 56% | 101% | 94% | 15% | 103% | -98% | 106% | 106% | -95% | -95% | -92% | -79% | -98% | 90% | 99% | 88% | growth at 100 µM (DU-145): -88%; growth at 0.1 µM (PC-3 [10]): 89%; growth at 0.1 µM (A549): 99%; growth at 0.01 µM (OVCAR-5 [11]): 102%; growth at 10 µM (UO-31 [12]): -91%; growth at 1 µM (HOP-62): 82%; growth at 0.1 µM (HL-60(TB) [13]): 95%; growth at 0.1 µM (IGROV-1 [14]): 88%; growth at 100 µM (IGROV-1 [15]): -82%; growth at 0.01 µM (K562 [16]): 97%; growth at 1 µM (IGROV-1 [17]): 86%; growth at 1 µM (NCI-H226): 79%; growth at 1 µM (SF-268 [18]): 83%; GI50 (SK-MEL-28): 1.89 µM; LC50 (SK-MEL-28): 6.09 µM; TGI (SK-MEL-28): 3.4 µM; growth at 0.01 µM (HCT-116): 105%; growth at 100 µM (SK-OV-3): -97% |

Reference: ChEMBL document CHEMBL4138123, “Design, synthesis and biological evaluation of novel pyrazolochalcones as potential modulators of PI3K/Akt/mTOR pathway and inducers of apoptosis in breast cancer cells” (Eur J Med Chem, 2017)
